Where “and” joins values, the source holds several entries; their conditions need not be identical. Identical values can stand only once.
What was measured:
[1] = biological target: CaMKI(h) (Homo sapiens, UniProt Q14012); assay: Kinase selectivity panel (residual activity at 1 μM); format: biochemical; conditions: inhibitor at 1 μM; read-out: residual kinase activity in % of maximal activity
[2] = biological target: KDR(h) (Homo sapiens, UniProt P35968); assay: as above; format: biochemical; conditions: inhibitor at 1 μM; read-out: residual kinase activity in % of maximal activity
Chain of KDR(h) (P35968 20-1356): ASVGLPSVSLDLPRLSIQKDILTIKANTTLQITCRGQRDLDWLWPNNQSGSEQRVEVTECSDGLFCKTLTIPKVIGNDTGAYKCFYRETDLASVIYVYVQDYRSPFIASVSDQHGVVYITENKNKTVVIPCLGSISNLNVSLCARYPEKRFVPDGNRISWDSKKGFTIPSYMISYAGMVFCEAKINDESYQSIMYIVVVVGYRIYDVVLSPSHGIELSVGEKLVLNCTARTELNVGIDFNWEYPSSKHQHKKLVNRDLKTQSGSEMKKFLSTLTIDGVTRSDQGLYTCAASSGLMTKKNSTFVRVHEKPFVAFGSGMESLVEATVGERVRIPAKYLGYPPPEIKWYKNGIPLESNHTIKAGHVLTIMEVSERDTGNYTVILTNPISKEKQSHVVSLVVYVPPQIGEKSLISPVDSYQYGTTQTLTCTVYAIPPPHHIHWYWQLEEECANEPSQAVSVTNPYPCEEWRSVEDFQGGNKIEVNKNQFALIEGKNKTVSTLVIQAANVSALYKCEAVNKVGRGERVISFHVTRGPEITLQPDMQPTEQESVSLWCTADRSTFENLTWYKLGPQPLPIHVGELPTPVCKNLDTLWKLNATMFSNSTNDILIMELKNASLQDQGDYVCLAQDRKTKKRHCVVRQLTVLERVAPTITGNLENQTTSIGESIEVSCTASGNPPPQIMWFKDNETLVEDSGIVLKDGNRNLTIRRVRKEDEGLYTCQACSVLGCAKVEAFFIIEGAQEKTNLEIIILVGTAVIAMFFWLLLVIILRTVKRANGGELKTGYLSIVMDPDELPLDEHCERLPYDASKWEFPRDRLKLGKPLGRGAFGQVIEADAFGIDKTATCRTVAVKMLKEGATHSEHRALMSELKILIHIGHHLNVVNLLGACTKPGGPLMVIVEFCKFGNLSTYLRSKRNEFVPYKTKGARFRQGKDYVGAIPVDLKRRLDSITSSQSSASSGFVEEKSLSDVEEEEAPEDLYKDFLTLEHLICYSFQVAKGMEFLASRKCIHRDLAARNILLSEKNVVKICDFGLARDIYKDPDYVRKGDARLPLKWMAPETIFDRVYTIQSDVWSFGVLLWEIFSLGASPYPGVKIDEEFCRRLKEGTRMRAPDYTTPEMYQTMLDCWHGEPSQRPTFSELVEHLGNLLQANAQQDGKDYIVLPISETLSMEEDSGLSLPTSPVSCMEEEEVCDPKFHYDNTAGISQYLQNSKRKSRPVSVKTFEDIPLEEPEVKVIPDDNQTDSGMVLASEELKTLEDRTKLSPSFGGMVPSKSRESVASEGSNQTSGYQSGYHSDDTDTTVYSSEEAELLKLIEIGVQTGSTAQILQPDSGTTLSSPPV

[3] = biological target: MAPK1(h) (Homo sapiens, UniProt P27361); assay: as above; format: biochemical; conditions: inhibitor at 1 μM; read-out: residual kinase activity in % of maximal activity
Chain of MAPK1(h) (P27361 whole entry): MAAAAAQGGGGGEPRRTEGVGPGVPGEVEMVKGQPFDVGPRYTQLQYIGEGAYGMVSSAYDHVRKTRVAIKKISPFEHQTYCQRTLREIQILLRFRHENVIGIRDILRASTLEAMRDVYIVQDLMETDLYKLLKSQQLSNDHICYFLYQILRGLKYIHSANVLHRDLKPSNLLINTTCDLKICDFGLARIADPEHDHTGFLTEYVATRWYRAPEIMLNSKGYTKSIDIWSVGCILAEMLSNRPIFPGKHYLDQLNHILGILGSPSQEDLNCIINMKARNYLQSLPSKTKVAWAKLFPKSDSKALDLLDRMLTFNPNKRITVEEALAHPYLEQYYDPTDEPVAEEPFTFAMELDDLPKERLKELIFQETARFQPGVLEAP

[4] = biological target: PAK2(h) (Homo sapiens, UniProt Q13177); assay: as above; format: biochemical; conditions: inhibitor at 1 μM; read-out: residual kinase activity in % of maximal activity
Chain of PAK2(h) (Q13177 whole entry): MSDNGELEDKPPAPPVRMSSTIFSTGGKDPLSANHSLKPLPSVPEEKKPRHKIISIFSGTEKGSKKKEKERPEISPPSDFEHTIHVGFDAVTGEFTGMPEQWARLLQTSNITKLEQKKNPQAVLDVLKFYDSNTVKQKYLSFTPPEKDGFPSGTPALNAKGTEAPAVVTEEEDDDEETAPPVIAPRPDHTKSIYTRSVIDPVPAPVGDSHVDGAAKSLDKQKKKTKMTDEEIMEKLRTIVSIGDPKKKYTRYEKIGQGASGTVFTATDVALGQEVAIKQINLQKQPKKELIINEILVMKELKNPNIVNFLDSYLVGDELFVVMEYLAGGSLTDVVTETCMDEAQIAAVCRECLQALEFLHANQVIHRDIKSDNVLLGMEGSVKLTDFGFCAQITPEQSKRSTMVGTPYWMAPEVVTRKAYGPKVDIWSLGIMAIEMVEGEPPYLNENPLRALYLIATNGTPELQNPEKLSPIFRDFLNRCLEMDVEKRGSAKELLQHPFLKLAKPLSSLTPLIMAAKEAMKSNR

[5] = biological target: SGK(h) (Homo sapiens, UniProt O00141); assay: as above; format: biochemical; conditions: inhibitor at 1 μM; read-out: residual kinase activity in % of maximal activity
Chain of SGK(h) (O00141 whole entry): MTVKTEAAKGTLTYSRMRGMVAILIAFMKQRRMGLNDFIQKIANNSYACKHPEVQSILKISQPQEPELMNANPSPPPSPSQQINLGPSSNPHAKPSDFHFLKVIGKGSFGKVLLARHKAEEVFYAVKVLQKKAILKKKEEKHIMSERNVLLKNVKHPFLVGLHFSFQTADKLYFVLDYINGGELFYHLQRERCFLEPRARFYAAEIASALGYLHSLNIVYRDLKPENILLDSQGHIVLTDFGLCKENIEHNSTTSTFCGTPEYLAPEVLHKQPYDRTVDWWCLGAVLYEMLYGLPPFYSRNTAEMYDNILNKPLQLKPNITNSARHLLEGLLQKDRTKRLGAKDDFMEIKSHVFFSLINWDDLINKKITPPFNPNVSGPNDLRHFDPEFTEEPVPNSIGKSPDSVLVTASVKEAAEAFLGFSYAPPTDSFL

[6] = biological target: PI3 Kinase (p110a/p85a)(h) (Homo sapiens, UniProt P42336); assay: as above; format: biochemical; conditions: inhibitor at 1 μM; read-out: residual kinase activity in % of maximal activity
Chain of PI3 Kinase (p110a/p85a)(h) (P42336 whole entry): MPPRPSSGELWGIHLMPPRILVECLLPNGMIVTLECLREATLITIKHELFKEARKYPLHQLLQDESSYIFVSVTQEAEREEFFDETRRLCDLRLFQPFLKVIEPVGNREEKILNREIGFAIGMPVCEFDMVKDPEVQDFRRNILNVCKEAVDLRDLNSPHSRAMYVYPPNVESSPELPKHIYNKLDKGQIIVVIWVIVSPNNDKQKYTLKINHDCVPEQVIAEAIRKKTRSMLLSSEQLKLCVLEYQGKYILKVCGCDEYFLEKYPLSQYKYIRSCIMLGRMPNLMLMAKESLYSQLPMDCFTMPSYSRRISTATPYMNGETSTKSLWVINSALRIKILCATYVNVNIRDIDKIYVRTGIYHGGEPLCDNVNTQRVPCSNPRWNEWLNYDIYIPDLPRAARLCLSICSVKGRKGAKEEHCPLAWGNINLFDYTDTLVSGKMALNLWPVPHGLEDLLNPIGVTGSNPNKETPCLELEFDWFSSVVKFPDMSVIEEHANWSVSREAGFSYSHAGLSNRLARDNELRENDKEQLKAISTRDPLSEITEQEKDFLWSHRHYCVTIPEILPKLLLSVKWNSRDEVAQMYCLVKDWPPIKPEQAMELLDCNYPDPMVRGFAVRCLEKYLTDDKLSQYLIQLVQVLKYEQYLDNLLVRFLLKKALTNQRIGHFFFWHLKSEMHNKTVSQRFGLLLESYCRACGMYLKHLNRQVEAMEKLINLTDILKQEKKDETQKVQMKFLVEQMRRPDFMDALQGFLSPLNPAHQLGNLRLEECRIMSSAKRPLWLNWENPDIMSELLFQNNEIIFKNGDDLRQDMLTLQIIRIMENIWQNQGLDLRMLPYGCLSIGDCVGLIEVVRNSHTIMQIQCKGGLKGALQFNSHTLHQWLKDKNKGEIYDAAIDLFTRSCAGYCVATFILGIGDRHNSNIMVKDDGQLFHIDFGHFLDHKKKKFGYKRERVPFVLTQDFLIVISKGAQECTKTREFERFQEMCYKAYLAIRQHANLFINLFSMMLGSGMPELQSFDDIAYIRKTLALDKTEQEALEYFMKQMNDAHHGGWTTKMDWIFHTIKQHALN
Chain of PI3 Kinase (p110a/p85a)(h) (P27986 whole entry partner): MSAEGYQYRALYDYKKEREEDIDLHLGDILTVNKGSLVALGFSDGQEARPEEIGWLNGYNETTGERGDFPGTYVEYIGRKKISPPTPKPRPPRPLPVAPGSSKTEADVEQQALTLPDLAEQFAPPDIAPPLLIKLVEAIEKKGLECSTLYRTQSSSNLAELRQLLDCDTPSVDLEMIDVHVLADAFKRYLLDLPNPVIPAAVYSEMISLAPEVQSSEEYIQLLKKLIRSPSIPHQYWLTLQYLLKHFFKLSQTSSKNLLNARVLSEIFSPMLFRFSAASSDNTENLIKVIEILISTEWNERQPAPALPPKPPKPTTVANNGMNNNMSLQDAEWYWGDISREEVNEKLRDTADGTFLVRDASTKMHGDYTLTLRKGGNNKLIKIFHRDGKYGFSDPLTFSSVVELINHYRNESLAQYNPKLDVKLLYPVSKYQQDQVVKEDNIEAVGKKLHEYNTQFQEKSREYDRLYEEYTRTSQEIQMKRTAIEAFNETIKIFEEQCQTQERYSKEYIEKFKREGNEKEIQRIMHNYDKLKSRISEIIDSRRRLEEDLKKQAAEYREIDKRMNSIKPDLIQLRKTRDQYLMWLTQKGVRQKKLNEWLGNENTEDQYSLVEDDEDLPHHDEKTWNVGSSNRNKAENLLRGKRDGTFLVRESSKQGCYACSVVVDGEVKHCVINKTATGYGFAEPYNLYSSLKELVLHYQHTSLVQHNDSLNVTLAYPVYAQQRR

[7] = biological target: purified CaMKII (Rattus norvegicus, UniProt P11275); assay: In vitro kinase reaction: CaMKII phosphorylation of GST-2BC (GluN2B) S1303; format: biochemical
Experimental: CaMKII-mediated phosphorylation of GluA1 S831 or GluN2B S1303 was measured by in vitro kinase reaction with a purified GST–GluA1 C-terminal tail or GST-GluN2B C-terminal tail. Reactions contained 40 nM CaMKII, 1 μM GST–GluA1, 50 mM PIPES, pH 7.1, 2 mM CaCl2, 10 mM MgCl2, 1 μM calmodulin, 1–4 mM ATP and 1 μM okadaic acid. Negative controls were prepared without ATP. Reactions were done at 30 °C for 20 s; reactions were stopped by adding SDS loading buffer and incubation in a boiling water bath for 5 min. GST, phospho-S831, CaMKII, phospho-T286 or phospho-S1303 were detected in the samples by immunoblot analysis.
Extended Data Fig. 3 No difference in LTP in WT mice when CaMKII is inhibited by either 10 or 30 μM AS283. Data are presented as mean values +/− SEM. a, 2x HFS potentiates the CA3-CA1 Schaffer collateral pathway in WT mice when CaMKII enzymatic activity is inhibited by 10 or 30 μM AS283 (incubated for 15 min prior to HFS, and washed out 5 min after). b, Quantification of LTP in WT mice after 10 or 30 μM AS283 (n = 3,7 hippocampal slices; Mann-Whitney test). p = 0.3833. c, Representative immunoblot and quantification of CaMKII T286 phosphorylation in dissociated hippocampal cultures after cLTP and inhibition by 10 μM AS283 (n = 4 independent cell preparations; one-way ANOVA, Tukey’s multiple comparisons test). […]

[8] = tested on: CA1 LTP in CaMKIIα KO slices (mock); assay: LTP field recordings in slices of CaMKIIα KO mice injected with AAV-mScarlet (mock); format: cell-based, mouse; conditions: for fEPSP slope (normalized to baseline): individual slices, sheet 5b
Experimental: Stereotactic injections were performed on P24 CaMKIIα KO mice. Animals were anesthetized with an intraperitoneal injection of 2,2,2-Tribromoethanol (250 mg kg^−1) and then head fixed to a stereotactic frame (David Kopf Instruments). AAVs (0.2–0.5 µl) were injected into intermediate CA1 at a rate of […] using a syringe pump (World Precision Instruments). Coordinates (in millimetres) were anterior–posterior: −3.17; mediolateral: ±3.45 (relative to Bregma); and dorsoventral: −2.5 (relative to pia). To confirm specificity of the injection site following LTP recordings, slices were fixed in 4% paraformaldehyde; then, they were coverslipped and imaged on an Olympus slide scanning microscope.
WT and mutant mouse hippocampal slices were prepared using P56–P70 mice. Isoflurane-anesthetized mice were rapidly decapitated, and the brain was dissected in an ice-cold high-sucrose solution containing 220 mM sucrose, 12 mM MgSO4, 10 mM glucose, 0.2 mM CaCl2, 0.5 mM KCl, 0.65 mM NaH2PO4, 13 mM NaHCO3 and 1.8 mM ascorbate. Transverse hippocampal slices (400 μm) were made using a tissue chopper (McIlwain) and transferred into 32 °C ACSF containing 124 mM NaCl, 3.5 mM KCl, 1.3 mM NaH2PO4, 26 mM NaHCO3, 10 mM glucose, 2 mM CaCl2, 1 mM MgSO4 and 1.8 mM ascorbate. All slices were recovered in 95% O2/5% CO2 for at least 1.5 h before experimentation.
For electrophysiological slice recording experiments, a glass micropipette (typical resistance of 0.4–0.8 megaohm when filled with ACSF) was used to record fEPSPs from the CA1 dendritic layer in response to stimulation of the Schaffer collaterals using a tungsten bipolar electrode. Slices were continually perfused with 30.5 °C ± 0.5 °C ACSF at a rate of 2.5 ± 0.5 ml min^−1 during recordings. Stimuli were delivered every 20 s, and three responses (1 min) were averaged for analysis. Data were analysed using WinLTP software with slope calculated as the initial rise from 10 to 60% of the response peak. Input–output curves were generated by increasing the stimulus intensity at a constant interval until a maximum response or population spike was noted to determine stimulation that elicits 50% of maximum slope. […] A stable baseline was acquired for a minimum of 20 min at 50% maximum slope before high-frequency stimulation (HFS; 2 × 100 Hz, 10 s interval) was applied. Responses were recorded for 40 or 60 min after HFS. Change in slope was calculated as a ratio of the average slope of the 20 min baseline (before HFS). Bar graphs of the percentage of fEPSP slope were calculated by averaging the last 10 min time points post-HFS and normalized to baseline.

Chain of CaMKI(h) (Q14012 whole entry): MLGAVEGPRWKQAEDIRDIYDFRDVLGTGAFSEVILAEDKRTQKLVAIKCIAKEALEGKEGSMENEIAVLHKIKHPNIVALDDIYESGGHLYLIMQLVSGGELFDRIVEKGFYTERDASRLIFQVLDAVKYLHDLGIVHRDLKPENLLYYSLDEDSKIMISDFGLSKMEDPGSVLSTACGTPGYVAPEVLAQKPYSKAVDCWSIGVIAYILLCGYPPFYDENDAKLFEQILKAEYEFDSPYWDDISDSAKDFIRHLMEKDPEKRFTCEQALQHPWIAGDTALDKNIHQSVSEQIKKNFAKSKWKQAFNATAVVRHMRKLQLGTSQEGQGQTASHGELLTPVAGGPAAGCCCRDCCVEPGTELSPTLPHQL

SMILES: NCCNc1cccc(-c2ccnc3[nH]c4ccccc4c23)c1 [AS283]
- remaining activity at 1 µM [1]: 107%
- remaining activity at 1 µM [2]: 15%
- remaining activity at 1 µM [3]: 102%
- remaining activity at 1 µM [4]: 76%
- remaining activity at 1 µM [5]: 86%
- remaining activity at 1 µM [6]: 100%
- GluN2B S1303 phosphorylation (immunoblot, normalized) ([7]; ATP + 10 μM AS283, 30 °C): 25.6775% and 36.949% and 34.6383% and 24.0932%
- effect on CaMKII-mediated S1303 phosphorylation ([7]; WT GluN2B C terminus): inhibited

SMILES: CC(C)(C)n1nc(Cc2cccc3ccccc23)c2c(N)ncnc21 [NM-PP1]
- synaptic response 60 min following LTP induction (fEPSP slope normalized to baseline) ([8]; AAV-mScarlet (mock), 10 μM NM-PP1): 102.757% and 115.997% and 130.031% and 114.245% and 91.515% and 129.007%
- effect on residual LTP in control slices ([8]; NM-PP1): no effect
- fEPSP slope (normalized to baseline) ([8]; Time (min) 0): 101.067 and 113.338 and 103.234 and 95.8969 and 93.1952 and 132.987
- fEPSP slope (normalized to baseline) ([8]; Time (min) 2.33333): 249.911 and 143.318 and 169.121 and 175.176 and 145.841 and 156.755
- fEPSP slope (normalized to baseline) ([8]; Time (min) 4.33333): 204.384 and 151.727 and 165.598 and 165.31 and 135.76 and 108.68
- fEPSP slope (normalized to baseline) ([8]; Time (min) 6.33333): 189.169 and 150.265 and 135.884 and 160.117 and 120.975 and 129.276
- fEPSP slope (normalized to baseline) ([8]; Time (min) 8.33333): 181.94 and 147.249 and 128.602 and 144.365 and 120.078 and 132.395
- fEPSP slope (normalized to baseline) ([8]; Time (min) 10.3333): 172.351 and 139.799 and 136.941 and 133.459 and 110.893 and 130.889
- fEPSP slope (normalized to baseline) ([8]; Time (min) 12.3333): 161.674 and 137.88 and 134.122 and 129.997 and 100.812 and 137.611
- fEPSP slope (normalized to baseline) ([8]; Time (min) 14.3333): 174.774 and 134.406 and 129.19 and 125.67 and 98.5718 and 121.048
- fEPSP slope (normalized to baseline) ([8]; Time (min) 16.3333): 159.559 and 133.63 and 131.891 and 126.189 and 89.1627 and 135.622
- fEPSP slope (normalized to baseline) ([8]; Time (min) 18.3333): 153.964 and 134.681 and 128.015 and 124.631 and 95.4355 and 108.465
- fEPSP slope (normalized to baseline) ([8]; Time (min) 20.3333): 149.095 and 132.944 and 120.851 and 126.189 and 102.828 and 98.3552
- fEPSP slope (normalized to baseline) ([8]; Time (min) 22.3333): 149.671 and 128.922 and 119.442 and 125.843 and 91.627 and 123.092
- fEPSP slope (normalized to baseline) ([8]; Time (min) 24.3333): 144.438 and 125.952 and 116.623 and 124.631 and 90.9549 and 132.503
- fEPSP slope (normalized to baseline) ([8]; Time (min) 26.3333): 142.473 and 123.484 and 117.21 and 125.843
- fEPSP slope (normalized to baseline) ([8]; Time (min) -2): 96.4978 and 115.989 and 102.999 and 98.6665 and 100.14 and 126.48
- fEPSP slope (normalized to baseline) ([8]; Time (min) -4): 101.912 and 117.543 and 106.993 and 100.051 and 103.5 and 95.9353
- fEPSP slope (normalized to baseline) ([8]; Time (min) -6): 102.969 and 117.634 and 102.06 and 101.09 and 99.2439 and 110.347

From publication PMC10482691, “LTP induction by structural rather than enzymatic functions of CaMKII” (Nature, 2023)
